As a reminder, the IC50 is the concentration that gives 50% inhibition.

The target of assay [1] is T1, human orexin-1 receptor (hOX1R) (Homo sapiens, UniProt O43613).
T1 construct: expressed in transfected cells; host or cells: Chinese hamster ovary (CHO) cells
T1 sequence (O43613 1-425): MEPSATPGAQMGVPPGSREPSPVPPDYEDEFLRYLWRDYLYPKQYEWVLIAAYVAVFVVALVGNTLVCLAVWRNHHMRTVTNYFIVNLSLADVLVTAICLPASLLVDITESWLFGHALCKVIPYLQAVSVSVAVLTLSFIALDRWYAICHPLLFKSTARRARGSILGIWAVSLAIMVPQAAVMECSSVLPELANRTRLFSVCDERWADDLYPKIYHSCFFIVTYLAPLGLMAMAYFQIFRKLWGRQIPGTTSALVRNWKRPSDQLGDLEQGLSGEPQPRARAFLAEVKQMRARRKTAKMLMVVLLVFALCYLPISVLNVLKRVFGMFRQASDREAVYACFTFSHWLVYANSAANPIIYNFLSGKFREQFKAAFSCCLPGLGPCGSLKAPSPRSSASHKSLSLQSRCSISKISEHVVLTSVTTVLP
Briefly: Measurement of orexin antagonistic activity (intracellular Ca2+ fluorescence, FDSS) on hOX1R. In kind it is cell-based. As to conditions: CHO cells forcibly expressing hOX1R; Fluo-4AM; ligand peptide (substituted human orexin-A) 300 pM; compound preincubated 30 minutes; read-out: IC50 Value OX1. The gist of the method:
(§1)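 CHO cells stably expressing hOX1R or hOX2R, loaded with 0.5 μM Fluo-4AM in HEPES/HBSS buffer with 0.1% BSA and 2.5 mM probenecid, pH 7.4, then preincubated 30 min with compound. Fluorescence recorded each second for 3 min by FDSS; maximum intensity taken as intracellular Ca2+ indicator of antagonism.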

The target in assay [2] is T2, orexin-2 receptor (hOX2R) (Homo sapiens, UniProt O43614).
T2 construct: expressed in transfected cells; host or cells: Chinese hamster ovary (CHO) cells
T2 sequence (O43614 1-444): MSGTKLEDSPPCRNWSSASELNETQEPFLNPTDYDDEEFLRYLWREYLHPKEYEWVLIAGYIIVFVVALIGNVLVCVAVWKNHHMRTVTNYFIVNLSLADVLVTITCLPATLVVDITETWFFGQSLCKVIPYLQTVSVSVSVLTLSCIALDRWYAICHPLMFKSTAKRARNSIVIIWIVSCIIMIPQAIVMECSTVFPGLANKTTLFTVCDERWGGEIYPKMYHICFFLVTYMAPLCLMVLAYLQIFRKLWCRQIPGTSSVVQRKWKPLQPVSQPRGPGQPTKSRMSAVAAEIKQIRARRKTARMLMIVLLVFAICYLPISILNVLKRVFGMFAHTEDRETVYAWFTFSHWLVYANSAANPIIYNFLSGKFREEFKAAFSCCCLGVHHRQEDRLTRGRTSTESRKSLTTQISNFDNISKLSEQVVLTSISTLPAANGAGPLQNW
Briefly: Measurement of orexin antagonistic activity (intracellular Ca2+ fluorescence, FDSS) on hOX2R. The format is cell-based. As to conditions: CHO cells forcibly expressing hOX2R; Fluo-4AM; ligand peptide (substituted human orexin-A) 3 nM; compound preincubated 30 minutes; read-out: IC50 Value OX2. The gist of the method: as §1

For the compound `C[C@@H](Cn1cc(-c2ccc(F)c(F)c2)cn1)N(C)C(=O)c1cc(F)ccc1-c1ncccn1` [Example 33, N-{(2S)-1-[4-(3,4-Difluorophenyl)-1H-pyrazol-1-yl]propan-2-yl}-5-fluoro-N-methyl-2-(pyrimidin-2-yl)benzamide], the values for the IC50 in assay [1] and in assay [2] were 11.9 nM and 20.8 nM, respectively.
The matching figures for `CCN(C(=O)c1cc(C)ccc1-n1nccn1)C(C)Cc1cnn(-c2ccc(F)cn2)c1` (stereo not shown) [Example 74, N-Ethyl-N-{1-[1-(5-fluoropyridin-2-yl)-1H-pyrazol-4-yl]propan-2-yl}-5-methyl-2-(2H-1,2,3-triazol-2-yl)benzamide]: 1.3 nM and 13.1 nM.
The matching figures for `CCN(C(=O)c1cc(C)ccc1-c1ncccn1)[C@@H](C)Cn1nnc(-c2ccc(F)cc2)n1` [Example 68, N-Ethyl-N-{(2S)-1-[5-(4-fluorophenyl)-2H-tetrazol-2-yl]propan-2-yl}-5-methyl-2-(pyrimidin-2-yl)benzamide]: 0.8 nM and 33.7 nM.
`CCN(C(=O)c1cc(C)ccc1-c1ncccn1)[C@@H](C)Cn1cc(-c2ccc(F)cn2)cn1` [Example 35, N-Ethyl-N-{(2S)-1-[4-(5-fluoropyridin-2-yl)-1H-pyrazol-1-yl]propan-2-yl}-5-methyl-2-(pyrimidin-2-yl)benzamide]: the IC50 in assay [1] was determined as 3.4 nM; in assay [2], 62.8 nM.
As for `CCN(C(=O)c1ccccc1-n1nccn1)[C@@H](C)Cn1nnc(-c2ccc(F)cc2)n1` [Example 67], the half-inhibitory concentration (IC50) was 1.8 nM in assay [1] and 75.9 nM in assay [2].
The matching figures for `CCN(C(=O)c1nc(C)ccc1-n1nccn1)[C@@H](C)Cn1cc(-c2ccc(F)cc2)nn1` [Example 83, N-Ethyl-N-{(2S)-1-[4-(4-fluorophenyl)-1H-1,2,3-triazol-1-yl]propan-2-yl}-6-methyl-3-(2H-1,2,3-triazol-2-yl)pyridine-2-carboxamide]: 9.9 nM and 308 nM.
The matching figures for `CCN(C(=O)c1ccccc1-n1nccn1)[C@@H](C)Cc1noc(-c2ccc(F)cn2)n1` [Example 56, N-Ethyl-N-{(2S)-1-[5-(5-fluoropyridin-2-yl)-1,2,4-oxadiazol-3-yl]propan-2-yl}-2-(2H-1,2,3-triazol-2-yl)benzamide]: 5 nM and 602 nM.
The matching figures for `CCN(C(=O)c1ccc(F)cc1-c1ncccn1)[C@@H](C)Cn1ccc(-c2ccc(F)cc2)n1` [Example 14, N-Ethyl-4-fluoro-N-[(2S)-1-[3-(4-fluorophenyl)-1H-pyrazol-1-yl]propan-2-yl)-2-(pyrimidin-2-yl)benzamide]: 1.3 nM and 7 nM.
With `CCN(C(=O)c1cc(F)ccc1-n1nccn1)[C@@H](C)Cc1noc(-c2ccc(F)cn2)n1` [Example 57, N-Ethyl-5-fluoro-N-{(2S)-1-[5-(5-fluoropyridin-2-yl)-1,2,4-oxadiazol-3-yl]propan-2-yl}-2-(2H-1,2,3-triazol-2-yl) benzamide], the IC50 in assay [1] amounted to 5.1 nM; in assay [2] it was 1080 nM.
The matching figures for `CCN(C(=O)c1cc(C)ccc1-c1ncccn1)[C@@H](C)Cn1nnc(-c2ccc(F)cn2)n1` [Example 88, N-Ethyl-N-{(2S)-1-[5-(5-fluoropyridin-2-yl)-2H-tetrazol-2-yl]propan-2-yl}-5-methyl-2-(pyrimidin-2-yl)benzamide]: 13.4 nM and 41.2 nM.
In the case of `Cc1ccc(-n2nccn2)c(C(=O)N(C)[C@@H](C)Cn2cc(-c3ccc(F)cn3)cn2)c1` [Example 22, N-{(2S)-1-[4-(5-Fluoropyridin-2-yl)-1H-pyrazol-1-yl]propan-2-yl}-N,5-dimethyl-2-(2H-1,2,3-triazol-2-yl) benzamide], the concentration for half-maximal inhibition (IC50) amounted to 3.8 nM in assay [1] and 52.9 nM in assay [2].

These data come from patent publication US20150166523A1, “BRANCHED CHAIN ALKYL HETEROAROMATIC RING DERIVATIVE” (TAISHO PHARMACEUTICAL CO., LTD., priority 2012, published 2015).
